In patent publication US20220305121A1, “N-ARYL SULFONAMIDE DERIVATIVES AS VACCINE ADJUVANT” (The Regents of the University of California, priority 2019, published 2022):
“Also recorded” adds a separate entry of the source.

Tests used:
THP-1 cells = assay: Cell viability assay (MTT); assay type: cell-based; conditions: compound 5 μM, 18 hours incubation; normalized to DMSO as 100%; mean
In short: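 Cells at 10^5/well in RPMI with 10% FBS were exposed to compound at 5 μM final (0.05% DMSO) for 18 h. MTT (0.5 mg/mL) then added for 4-6 h, cells lysed overnight in SDS/HCl, absorbance read at 570 nm against 650 nm reference.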

[1] = system: C57BL/6 (wild-type, WT) mice; assay: In vivo adjuvant activity study (ovalbumin + MPLA + compound, OVA-specific IgG by ELISA); conditions: coimmunization with MPLA and ovalbumin; for OVA-specific IgG antibody titers: intramuscular, days 0 and 21, compared to MPLA alone
NF-κB and ISRE = NF-κB and ISRE reporter assays (primary screens), statements in words for both assays; assay type: cell-based; conditions: for activity in NF-κB and ISRE assays (in words): with LPS or IFN-α as primary stimulus, compared to compound 1
In short: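 Single 5 μM compound (0.05% DMSO). NF-κB: THP1-Blue cells with 10 μg/mL LPS, 20 h, SEAP by absorbance at 630 nm. ISRE: ISRE-bla THP-1 cells with 100 U/mL IFN-α, 16 h, CCF4-AM 465/535 nm ratio. Both normalized to stimulus alone as 100%, compound 1 plus stimulus as 200%.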

NF-κB = assay: Measurement of NF-κB activation using THP1-Blue NF-κB cells (SEAP reporter, LPS as primary stimulus); assay type: cell-based
In short: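 THP1-Blue NF-κB cells (10^5/well, RPMI + 10% FBS) were co-treated with LPS 10 μg/mL and compound 5 μM (final, […]) for 20 h. Supernatant SEAP was read by QuantiBlue colorimetry at 630 nm. Two-point normalization set LPS alone to 100% and compound 1+LPS to 200%.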

ISRE = assay: Measurement of ISRE activity in ISRE-bla THP-1 cells (FRET, IFN-α as primary stimulus); assay type: cell-based; conditions: for activity at 5 µM / EC50: Homo sapiens, THP-1; for activity at 5 µM: read-out: ISRE % Activation; for EC50: dose response in the presence of IFN-α
In short: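 Cells at 5×10^4/well in RPMI with 10% dialyzed FBS, treated with compound at 5 μM (0.05% DMSO) plus IFN-α at 100 U/mL (final) for 16 h. CCF4-AM substrate added for 3 h at room temperature. Background-subtracted 465/535 nm emission ratio, 2-point normalized: IFN-α alone 100%, compound 1+IFN-α 200%.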

[2] = Stability of compound 48 in DMSO stock and in assay media; assay type: physicochemical
Procedure: However, before proceeding with syntheses of additional acylated analogs, its stability in stock solutions was evaluated since during the assay this compound could behave as a prodrug by undergoing deacetylation to release active compound 1. […] Thus, syntheses of additional acylated analogs were not pursued.

[3] = compound 5 μM + LPS, 20 hour incubation, two point normalized: compound 1 + LPS = 200%, LPS = 100%, mean
[4] = compound 5 μM + IFN-α 100 U/mL, 16 hours, two point normalized: compound 1 + IFN-α = 200%, IFN-α = 100%, mean

Structure (SMILES) | MTT % Viability (THP-1 cells) | systemic toxicity as indicated by behavior change or weight loss [1] | OVA-specific IgG antibody titers [1] | activity in NF-κB and ISRE assays (in words) (NF-κB and ISRE) | activity at 5 µM (NF-κB; [3]) | EC50 (NF-κB; dose response in the presence of LPS) | activity at 5 µM (ISRE; [4]) | EC50 (ISRE) | NF-κB or ISRE activity when tested alone (NF-κB and ISRE; tested alone, without LPS or IFN-α) | incubation with assay media ([2]; assay media, data not shown) | stability of stock in DMSO ([2]; stock in DMSO) | NF-κB % Activation (NF-κB; [3]) | ISRE % Activation (ISRE; [4])
CCOc1ccc(S(=O)(=O)N(C)c2cc(OC)c(Cl)cc2OC)cc1 [Compound 33, N-(4-chloro-2,5-dimethoxyphenyl)-4-ethoxy-N-methylbenzenesulfonamide] | 74.5% | without demonstrable systemic toxicity | statistically significant increases; also recorded: significant enhancement of antibody titers | equipotent as compound 1 | 235% | 690 nM | 215% | 840 nM | – | – | – | – | –
CCOc1ccc(S(=O)(=O)Nc2cc(OC)c(Cl)cc2OC)cc1 [Compound 1, N-(4-chloro-2,5-dimethoxyphenyl)-4-ethoxybenzenesulfonamide] | 73.5% | without demonstrable systemic toxicity | statistically significant increases; also recorded: significant enhancement of antibody titers | enhanced their activation; also recorded: retained activity; also recorded: sustained NF-κB and ISRE activation | 200% | – | 200% | 660 nM | little if any | – | – | – | –
CCOc1ccc(S(=O)(=O)N(C(C)=O)c2cc(OC)c(Cl)cc2OC)cc1 [Compound 48, N-(4-chloro-2,5-dimethoxyphenyl)-N-((4-ethoxyphenyl)sulfonyl)acetamide] | 72.0% | – | – | active | – | – | – | – | – | release of compound 1 | stable | – | –
CCOc1ccc(S(=O)(=O)N(CCCNC(=O)CCCC[C@H]2SC[C@H]3NC(=O)N[C@H]32)c2cc(OC)c(Cl)cc2OC)cc1 [Compound 58, N-(3-((N-(4-chloro-2,5-dimethoxyphenyl)-4-ethoxyphenyl)sulfonamido)propyl)-5-((3aR,4R,6aS)-2-oxohexahydro-1H-thieno[3,4-d]imidazol-4-yl)pentanamide] | 69.6% | – | – | equipotent to compound 1 | – | – | – | – | – | – | – | 195% | 175%
CNC(=O)c1ccc(S(=O)(=O)Nc2cc(OC)c(Cl)cc2OC)cc1 [Compound 30, 4-(N-(4-chloro-2,5-dimethoxyphenyl)sulfamoyl)-N-methylbenzamide] | 77.0% | – | – | completely inactive | 103% | – | 105% | – | – | – | – | – | –
CCOC(=O)CN(c1cc(OC)c(Cl)cc1OC)S(=O)(=O)c1ccc(OCC)cc1 [Compound 49, Ethyl N-(4-chloro-2,5-dimethoxyphenyl)-N-((4-ethoxyphenyl)sulfonyl)glycinate] | 81.4% | – | – | retained dual NF-κB and ISRE activities | 202% | – | 184% | – | – | – | – | – | –
